Laboratory results: patent US11691989B2, “Macrocyclic indoles as Mcl-1 inhibitors” (ASCENTAGE PHARMA (SUZHOU) CO., LTD., priority 2018, dated 2023)
Converted amounts (≈) assume the structure as drawn. Read-outs that look alike come from different tables or passages of the source.

Assays:
[1] = biological target: Mcl-1 protein (residues 171-323) (Homo sapiens (Human), UniProt Q07820); assay: Inhibition of Mcl-1 by fluorescence polarization (FP) competitive binding assay with FAM-Bid tracer; settings: 2 nM FAM-Bid, 20 nM Mcl-1, 30 min, read-out: Mc1-1 (FP)
Sequence of Mcl-1 protein (residues 171-323) (Q07820 171-323): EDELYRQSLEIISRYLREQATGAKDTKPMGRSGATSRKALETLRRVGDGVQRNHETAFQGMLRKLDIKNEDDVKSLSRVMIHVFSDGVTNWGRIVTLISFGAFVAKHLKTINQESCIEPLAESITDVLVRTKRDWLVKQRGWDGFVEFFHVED
How it was run: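 Competitive FP binding of compounds against FAM-Bid tracer (final 2 nM) on Mcl-1 (final 20 nM) in PBS with 0.01% BGG and 0.01% Triton X-100, 5% final DMSO.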

OPM-2 cells = assay: Cell viability assay (OPM-2 cells), CCK-8; assay type: cell-based; settings: 5% FBS
How it was run: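 OPM-2 myeloma cells (20000/well) incubated with serially diluted compound for 24 h at 37 °C, 5% CO2. Viability read by CCK-8 (4 h) absorbance at 450 nm, normalised to vehicle; IC50 from nonlinear regression.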

NCI-H929 cells = assay: Cell viability assay (NCI-H929 cells), CCK-8; assay type: cell-based; settings: 5% FBS
How it was run: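 NCI-H929 cells (20000/well) exposed to serially diluted compounds for 24 h at 37 °C, 5% CO2. Viability by CCK-8, absorbance at 450 nm after 1-4 h, normalized to vehicle-treated cells. IC50 by nonlinear regression.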

[2] = Microsome clearance assay, mouse; assay type: in vitro ADME; settings: 0.5 mg/ml protein, 1 mM NADPH, 60 minutes; for Mouse Liver Microsome Clint (μL/min/mg protein): mouse liver microsomes, 5 μM; for microsomal CLint at 5 μM: male, CD-1, mouse, pooled liver microsomes, pH 7.4, mouse liver microsomes, read-out: Mouse Liver Microsome Clint (μL/min/mg protein)
How it was run: (§1)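 Pooled liver microsomes (human, male Wistar rat, male CD-1 mouse) at 0.5 mg/ml protein in 0.1M sodium phosphate pH 7.4 with 5 μM test compound and 1 mM NADPH, incubated 60 minutes. Reactions quenched in ice-cold methanol; supernatant analysed by LC/MS/MS (electrospray).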

[3] = Microsome clearance assay, rat; assay type: in vitro ADME; settings: 0.5 mg/ml protein, 1 mM NADPH, 60 minutes; for Rat Liver Microsome Clint (μL/min/mg protein): rat liver microsomes, 5 μM; for microsomal CLint at 5 μM: male, Wister, rat, pooled liver microsomes, pH 7.4, rat liver microsomes, read-out: Rat Liver Microsome Clint (μL/min/mg protein)
How it was run: as §1

[4] = Microsome clearance assay, human; assay type: in vitro ADME; settings: 0.5 mg/ml protein, 1 mM NADPH, 60 minutes; for Human Liver Microsome Clint (μL/min/mg protein): human liver microsomes, 5 μM; for microsomal CLint at 5 μM: human, pooled liver microsomes, pH 7.4, human liver microsomes, read-out: Human Liver Microsome Clint (μL/min/mg protein)
How it was run: as §1

MV-4-11 cells = assay: MV-4-11 cell viability assay, CCK-8; assay type: cell-based
Experimental: MV-4-11 cells were obtained from American Type Culture Collection (ATCC). […]
The effect of representative Compounds of the Disclosure on cell viability was determined using Cell Counting Kit-8 (CCK-8) assay according to the manufacturer's instructions. 95 μL of MV-4-11 cell suspension (20000 cells/well) in culture medium were seeded into 96-well plates and cultured 4 hrs. Each tested compound was serially diluted in DMSO, then 5 μL of the compound or DMSO was diluted in 95 μL medium once more. At last, 5 μL of the compound dilution was added to the corresponding well of the cell plate. After the addition of the tested compound, the cells were incubated at 37° C. in an atmosphere of 5% CO2 for 24 hrs. At the end, 10 μL of CCK-8 solution was added to each well of the plate and incubated for 1-4 hrs. The plates were read at 450 nm on the microplate reader (BioTek Synergy 1MF). The readings were normalized to the vehicle cells, and the IC50 was calculated by nonlinear regression analysis using GraphPad Prism 6 software.

[5] = Kinetic solubility assay in PBS buffer; assay type: physicochemical; settings: for solubility: PBS buffer, pH 6.5, aqueous buffer, thermodynamic from solid, read-out: Solubility (pH 6.5, μg/mL)
Experimental: Representative Compounds of the Disclosure were tested in a kinetic solubility assay in PBS buffer. PBS buffer was prepared by dissolving 4.86 g of potassium dihydrogen phosphate and 5.09 g of disodium hydrogen phosphate dodecahydrate in 1 L of ultrapure water (final pH 6.5). 0.5 mg of test sample was dissolved in 1 mL of methanol and the stock solution was transferred into 2 mL EP tube, and evaporated at 50° C. for 3 h. To the tube was added 1 mL of PBS buffer and the mixture was stirred and shaken for 1-2 h. The solution was allowed to stand overnight and then filtered before HPLC analysis. Another 1.5 mg of the sample was dissolved in 3 mL of methanol to prepare a calibration curve with a series of concentration range of 5-500 μM. The solubility of each sample was determined by the measured peak area in HPLC.

[6] = read-out: MV-4-11 IC50 (5% FBS), MV-4-11 cells, 5% FBS, 24 hrs, CCK-8
[7] = Homo sapiens, MV4-11, 24 h, read-out: MV-4-11 IC50 (5% FBS, nM), MV-4-11 cells, 5% FBS, 24 hrs, CCK-8

Row | SMILES | IC50 [1] [nM] | IC50 (NCI-H929 cells; 24 hrs) [nM] | Mouse Liver Microsome Clint (μL/min/mg protein) [2] [μL/min/mg protein] | Rat Liver Microsome Clint (μL/min/mg protein) [3] [μL/min/mg protein] | Human Liver Microsome Clint (μL/min/mg protein) [4] [μL/min/mg protein] | IC50 (MV-4-11 cells; [6]) [nM] | IC50 (NCI-H929 cells; Homo sapiens, NCI-H929, 24 h) [nM] | microsomal CLint at 5 μM [2] [µL/min/mg] | microsomal CLint at 5 μM [3] [µL/min/mg] | microsomal CLint at 5 μM [4] [µL/min/mg] | IC50 (MV-4-11 cells; [7]) [nM] | solubility [5] [µg/mL] | Solubility (pH 6.5, μg/mL) ([5]; PBS buffer pH 6.5) [μg/mL] | IC50 (OPM-2 cells; 24 hours) [nM] | IC50 (OPM-2 cells; Homo sapiens, OPM-2, 24 h) [nM]
1 | Cc1c2c(nn1C)CSCc1cc(n(C)n1)CSc1cc(c3ccccc3c1)OCCCc1c(C(=O)O)n(C)c3c-2c(Cl)ccc13 [AZD5991, (Z)-16-chloro-11,21,25,61-tetramethyl-11H,21H,61H-10-oxa-4,8-dithia-1(7,3)-indola-2(4,3),6(3,5)-dipyrazola-9(3,1)-naphthalenacyclotridecaphane-12-carboxylic acid, reference compound] |  |  |  |  |  |  | 47 | 20.8 | 16.6 | < 2.8 | 29 | < 1 |  |  | 148
2 | Cc1c(C(=O)O)n2c3ccc(Cl)c(c13)-c1c(nn(C)c1C)CSCc1cc(n(C)n1)CSc1cc(c3ccccc3c1)OCCC2 [Cpd. No. 5, (Z)-1^5-chloro-1^3,2^1,2^5,6^1-tetramethyl-1^1H,2^1H,6^1H-10-oxa-4,8-dithia-1(4,1)-indola-2(4,3), 6(3,5)-dipyrazola-9(3,1)-naphthalenacyclotridecaphane-1^2-carboxylic acid] | 17 | 33 | 48.4 | 58.8 | 15.8 |  |  |  |  |  | 43 |  | 2 | 192 | 
3 | Cc1c(C(=O)O)n2c3ccc(Cl)c(c13)-c1c(nn(C)c1C)CSCc1cc(n(C)n1)CSc1cc(c3ccc(F)cc3c1)OCCC2 [Cpd. No. 14, (Z)-1^5-chloro-9^6-fluoro-1^3,2^1,2^5,6^1-tetramethyl-1^1H,2^1H,6^1E-10-oxa-4,8-dithia-1(4,1)-indola-2(4,3),6(3,5)-dipyrazola-9(3,1)-naphthalenacyclotridecaphane-1^2-carboxylic acid] | 19 | 28 | 28.6 | 27.2 | 5.0 | 28 |  |  |  |  |  | 10 (≈ 14.5 µM) |  | 52 | 
4 | Cc1c(C(=O)O)n2c3ccc(Cl)c(c13)-c1c(nn(C)c1C(F)F)CSCc1cc(n(C)n1)CSc1cc(c3ccc(F)cc3c1)OCCC2 [Cpd. No. 18, (Z)-1^5-chloro-2^5-(difluoromethyl)-9^6-fluoro-1^3,2^1,6^1-trimethyl-1^1H,2^1H,6^1H-10-oxa-4,8-dithia-1(4,1)-indola-2(4,3),6(3,5)-dipyrazola-9(3,1)-naphthalenacyclotridecaphane-1^2-carboxylic acid] | 15 |  |  |  |  |  | 63 | 42 | 22.6 | 22.2 | 93 | < 1 |  |  | 189
5 | Cc1c(C(=O)O)n2c3ccc(Cl)c(c13)-c1c(nn(C)c1C(F)F)CN(S(C)(=O)=O)Cc1cc(n(C)n1)CSc1cc(c3ccc(F)cc3c1)OCCC2 [Cpd. No. 45, (Z)-1^5-chloro-2^5-(difluoromethyl)-9^6-fluoro-1^3,2^1,6^1-trimethyl-4-(methylsulfonyl)-1^1H,2^1H,6^1H-10-oxa-8-thia-4-aza-1(4,1)-indola-2(4,3),6(3,5)-dipyrazola-9(3,1)-naphthalenacyclotridecaphane-1^2-carboxylic acid] | 16 |  |  |  |  |  | 253 | 21.4 | 12.6 | < 2.8 |  | 94 (≈ 119 µM) |  |  | 350
6 | Cc1c(C(=O)O)n2c3ccc(Cl)c(c13)-c1c(nn(C)c1C)CN(Cc1ncco1)Cc1cc(n(C)n1)CSc1cc(c3ccc(F)cc3c1)OCCC2 [Cpd. No. 52, (Z)-1^5-chloro-9^6-fluoro-1^3,2^1,2^5,6^1-tetramethyl-4-(oxazol-2-ylmethyl)-1^1H,2^1H,6^1H-10-oxa-8-thia-4-aza-1(4,1)-indola-2(4,3),6(3,5)-dipyrazola-9(3,1)-naphthalenacyclotridecaphane-1^2-carboxylic acid] | 21 |  |  |  |  |  | 87 | 53 | 29.8 | 28.4 |  | 4 (≈ 5.3 µM) |  |  | 699

Continued, in another order:

Row | IC50 [1] [nM] | IC50 (NCI-H929 cells; 24 hrs) [nM] | Mouse Liver Microsome Clint (μL/min/mg protein) [2] [μL/min/mg protein] | Rat Liver Microsome Clint (μL/min/mg protein) [3] [μL/min/mg protein] | Human Liver Microsome Clint (μL/min/mg protein) [4] [μL/min/mg protein] | IC50 (MV-4-11 cells; [6]) [nM] | IC50 (NCI-H929 cells; Homo sapiens, NCI-H929, 24 h) [nM] | microsomal CLint at 5 μM [2] [µL/min/mg] | microsomal CLint at 5 μM [3] [µL/min/mg] | microsomal CLint at 5 μM [4] [µL/min/mg] | IC50 (MV-4-11 cells; [7]) [nM] | solubility [5] [µg/mL] | Solubility (pH 6.5, μg/mL) ([5]; PBS buffer pH 6.5) [μg/mL] | SMILES | IC50 (OPM-2 cells; 24 hours) [nM] | IC50 (OPM-2 cells; Homo sapiens, OPM-2, 24 h) [nM]
7 | 9 | 39 | 23.6 | 21.0 | <2.8 | 29 |  |  |  |  |  |  |  | Cc1c(C(=O)O)n2c3ccc(Cl)c(c13)-c1c(nn(C)c1C)CSCc1cc(n(C)n1)CSc1cc(c3ccccc3c1)OCCC2 (atropisomer, axis not shown) [Cpd. No. 6, (R)-(Z)-1^5-chloro-1^3,2^1,2^5,6^1-tetramethyl-1^1H,2^1H,6^1H-10-oxa-4,8-dithia-1(4,1)-indola-2(4,3), 6(3,5)-dipyrazola-9(3,1)-naphthalenacyclotridecaphane-1^2-carboxylic acid] | 136 | 
8 | 2 | 19 | 28.0 | 19.6 | <2.8 | 5.4 |  |  |  |  |  |  |  | Cc1c(C(=O)O)n2c3ccc(Cl)c(c13)-c1c(nn(C)c1C)CSCc1cc(n(C)n1)CSc1cc(c3ccc(F)cc3c1)OCCC2 (atropisomer, axis not shown) [Cpd. No. 15, (R)-(Z)-1^5-chloro-9^6-fluoro-1^3,2^1,2^5,6^1-tetramethyl-1^1H,2^1H,6^1E-10-oxa-4,8-dithia-1(4,1)-indola-2(4,3),6(3,5)-dipyrazola-9(3,1)-naphthalenacyclotridecaphane-1^2-carboxylic acid] | 52 | 
9 | 14 |  |  |  |  |  | 611 |  |  |  | 45 |  |  | Cc1c(C(=O)O)n2c3ccc(C#N)c(c13)-c1c(nn(C)c1C)CSCc1cc(n(C)n1)CSc1cc(c3ccc(F)cc3c1)OCCC2 [Cpd. No. 20, (Z)-1^5-cyano-9^6-fluoro-1^3,2^1,2^5,6^1-tetramethyl-1^1H-1,2^1H,6^1H-10-oxa-4,8-dithia-1(4,1)-indola-2(4,3),6(3,5)-dipyrazola-9(3,1)-naphthalenacyclotridecaphane-1^2-carboxylic acid] |  | 613
